ChEMBL document CHEMBL5506019 (J Med Chem, 2024)
The source made the active and inactive calls. The calls are words filed in the database; no cut-off is given here.

Columns and labels:
Type in all cases: functional, cell-based
[1] = molecular target: T1, 5-hydroxytryptamine receptor 2A (Homo sapiens, UniProt P28223); assay: Agonist activity at human 5-HT2AR expressed in HEK293 cells incubated upto 90 sec by Fluo-4 AM dye based Ca2+ imaging assay
[2] = molecular target: T1, 5-hydroxytryptamine receptor 2A; assay: Agonist activity at human 5-HT2AR expressed in HEK293 cells assessed as maximal response incubated upto 90 sec by Fluo-4 AM dye based Ca2+ imaging assay relative to 5-HT; details: filed as agonist
[3] = molecular target: T2, 5-hydroxytryptamine receptor 2C (Homo sapiens) (UniProt P28335); assay: Agonist activity at human 5-HT2CR expressed in HEK293 cells upto 50 uM incubated upto 90 sec by Fluo-4 AM dye based Ca2+ imaging assay
T2 sequence (whole entry): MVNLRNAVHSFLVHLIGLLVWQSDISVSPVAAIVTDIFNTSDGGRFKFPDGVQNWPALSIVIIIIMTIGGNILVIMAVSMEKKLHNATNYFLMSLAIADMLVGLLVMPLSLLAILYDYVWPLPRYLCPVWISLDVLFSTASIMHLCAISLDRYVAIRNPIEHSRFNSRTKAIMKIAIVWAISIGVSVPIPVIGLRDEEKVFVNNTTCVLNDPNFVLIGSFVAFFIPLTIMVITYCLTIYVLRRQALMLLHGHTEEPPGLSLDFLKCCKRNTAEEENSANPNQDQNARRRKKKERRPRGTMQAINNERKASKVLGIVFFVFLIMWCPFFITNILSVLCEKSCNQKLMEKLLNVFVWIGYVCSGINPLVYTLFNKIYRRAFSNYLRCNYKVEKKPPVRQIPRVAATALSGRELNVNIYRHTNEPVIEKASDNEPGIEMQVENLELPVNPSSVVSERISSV

[4] = molecular target: T1, 5-hydroxytryptamine receptor 2A; assay: Agonist activity at human 5-HT2AR expressed in HEK293 cells upto 50 uM incubated upto 90 sec by Fluo-4 AM dye based Ca2+ imaging assay

T1 sequence (P28223 whole entry): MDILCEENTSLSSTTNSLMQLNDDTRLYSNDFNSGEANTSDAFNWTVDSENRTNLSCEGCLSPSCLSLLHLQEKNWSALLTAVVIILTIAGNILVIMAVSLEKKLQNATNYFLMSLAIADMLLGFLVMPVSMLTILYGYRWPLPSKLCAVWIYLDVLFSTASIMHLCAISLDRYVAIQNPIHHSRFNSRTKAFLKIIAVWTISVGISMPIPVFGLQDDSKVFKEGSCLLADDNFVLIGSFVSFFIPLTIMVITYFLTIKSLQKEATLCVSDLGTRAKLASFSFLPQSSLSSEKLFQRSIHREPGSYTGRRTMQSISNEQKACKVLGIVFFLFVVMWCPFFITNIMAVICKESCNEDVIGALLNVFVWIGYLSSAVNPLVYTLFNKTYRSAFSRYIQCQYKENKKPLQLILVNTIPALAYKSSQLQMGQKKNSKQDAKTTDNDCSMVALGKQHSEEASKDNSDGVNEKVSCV

## COc1cc(CCN)c(OC)cc1Br
[1]
  EC50: 1.6 nM
[2]
  Rmax: 68%

## CCN1CCC[C@@H](c2cc(OC)c(C(F)(F)F)cc2OC)C1
[3]
  Activity: inactive

## CCN1CCC[C@H](c2cc(OC)c(C(F)(F)F)cc2OC)C1
[4]
  Activity: inactive
[3]
  Activity: inactive

## COc1cc(C2CCCNC2)ccc1C(F)(F)F (configuration not stated)
[3]
  Activity: inactive

## COc1ccc(OC)c(C2CCCNC2)c1 (racemic)
[4]
  Activity: inactive
[3]
  Activity: inactive

## FC(F)(F)c1ccc(C2CCCNC2)cc1 (racemic)
[4]
  Activity: inactive
[3]
  Activity: inactive

## CCOc1cc(C(F)(F)F)c(OCC)cc1C1CCCNC1 (stereo in doubt)
[3]
  Activity: inactive

## CCOc1cc(C(F)(F)F)c(OCC)cc1C1CCCNC1 (stereo in doubt; 26(eu))
[3]
  Activity: inactive
